One data set is described as follows: Water-solubility at 1 wt. % in distilled water. The class given is physicochemical. As to conditions: 1 wt. % in ~pH7 distilled water at RT; clear = soluble, turbid = insoluble. On the procedure:
Water-solubility of a chemical compound, and, for instance, water insolubility of condensation-curable amino-silicone pre-polymers, can be provided by the supplier. It can also be confirmed or determined as follows. Water-solubility was assessed by mixing 1 wt. % of the material in near neutral (˜pH7) distilled water at RT, followed by a brief vortex for homogeneity. A clear solution indicated a water-soluble material, whereas turbidity indicated an at least partly water-insoluble material.
For the molecule `CCO[Si](C)(C)CCCN` [3-aminopropyldimethylethoxysilane], the water-solubility result is on record as “water soluble”.

With `CCO[Si](CCCN)(OCC)OCC` [Dynasylan® AMEO, 3-aminopropyltriethoxysilane], the water-solubility result is on record as “soluble”.

For the molecule `C[Si](C)(CCCN)O[Si](C)(C)CCCN` [GP-967, Bis 3-aminopropyl tetramethyldisiloxane], the water-solubility result was “turbid dispersion”.

On to `CCO[Si](CCCNCCN)(OCC)OCC` [N-(2-aminoethyl)-3-aminopropyltriethoxysilane], for which the water-solubility result was “water soluble”.

Turning to `CCO[Si](CCCNCCC[Si](OCC)(OCC)OCC)(OCC)OCC` [SIB1824.5, bis(triethoxy-silylpropyl) amine], the water-solubility result is “insoluble”.

As for `CCO[Si](CCCN1CCC[Si]1(OCC)OCC)(OCC)OCC` [SIT8187.2, 1-(3-(triethoxysilyl)propyl)-2,2-diethoxi-1-aza-2-silacyclopentane], the water-solubility result is listed as “insoluble”.

The same data set, now with this note: Table 17.
`CCO[Si](C)(CCCN)OCC` [3-Aminopropylmethyl-diethoxysilane]: the “solubility (in Material Type)” value is “silane (soluble)”.

On to `CCO[Si](C)(CCCNCCC[Si](C)(OCC)OCC)OCC` [Bis[methyldiethoxysilyl-propyl] amine], for which the “solubility (in Material Type)” value is “silane (non soluble)”.

For `C[Si]1(C)O[Si](C)(C)O[Si](C)(C)O[Si](C)(C)O[Si](C)(C)O1` [Decamethylcyclopenta-siloxane, Decamethylcyclopentasiloxane], the “solubility (in Material Type)” value is given as “(soluble)”.

On to `CCO[Si](CCCNCCN)(OCC)OCC` [N-(2-aminoethyl)-3-aminopropyltriethoxysilane], for which the “solubility (in Material Type)” value was “silane (soluble)”.

(Values after patent US11266578B2, “Composition, kit and method for coloring keratinous fibers” (Henkel AG & Co. KGaA, priority 2017, dated 2022).)
